Conditions: cited from earlier work

First: Oc1ccccc1 [phenol]
Second: CCC1(c2ccccc2)C(=O)NC(=O)NC1=O [5-ethyl-5-phenylbarbituric acid]
The “log P0 (permeability, PAMPA-IPM)” value of the first is higher: -4.14 for the first, -5.15 for the second.

In the case of `CN1CCC[C@H]1c1cccnc1` [nicotine], the “log P0 (permeability, PAMPA-IPM)” value is given as -4.58.

Conditions: pH 7.4
Protocol: First, the top part of the skin-PAMPA (PAMPA-Certramide) sandwich, which contains the membrane, was hydrated overnight with the hydration solution. Different buffer solutions at pH 3, 4, 5, 6, 7, and 7.4 were prepared to solve the samples. To prepare them, 25 mL of concentrated PRISMA HTTM was diluted to 1 L with water, and 0.5 M NaOH was added to obtain the desired pH. Above pH 8, the skin-PAMPA membrane becomes degraded [40], so pH 7.4 was the highest pH used in the present work. In order to measure the intrinsic permeability, each sample was dissolved in the buffer solution with a pH that ensured the presence of the neutral form. […] In all instances, the pH of the acceptor compartment was 7.4.
A total of 180 µL of sample solution was placed in the donor compartment, and 200 µL of pH 7.4 buffer was placed in the acceptor compartment.
According to previous studies, in which the conditions in the skin-PAMPA measurements were optimized [40], the skin-PAMPA sandwich was incubated at 32 °C for 4 h. Afterwards, the concentration of the compounds was measured in both the donor and the acceptor plates. Additionally, the initial sample solution was quantified. […] The injection volume was 5 μL, and 3 to 5 replicate measurements were performed per compound. Every well-plate contained only one compound.
When the pH is different on the two sides of the membrane, a gradient-pH is created and the permeation of ionizable molecules can be altered. This gradient-pH implies two different permeability coefficients, one on each direction of the membrane, denoted by the subscript (D→A) or (A→D). Equation (5) has two unknowns, Pe(A→D) and Pe(D→A), so an iterative method has to be used to solve it. To this purpose, two different experiments were carried out for each compound, one with a gradient-pH and the other with an iso-pH, that is, the same pH in both compartments (7.4). For the iso-pH, Pe(A→D) = Pe(D→A).
Finally, Equation (5) was iteratively solved for Pe(D→A). Initially, ra was assumed to be rv, but the ra value was improved after each iteration by using the newly obtained Pe(D→A). The process continued until self-consistency was reached within the precision required (0.001). The Solver tool in Microsoft Excel was used for the iterative process.
In the donor compartment, a pH was used in which the compound was in its neutral form, whereas in the acceptor compartment, the buffer was at pH 7.4.

Going from `CC(=O)CC(c1ccccc1)c1c(O)c2ccccc2oc1=O` (stereo not drawn) [warfarin] to `CCC1(c2ccccc2)C(=O)NC(=O)NC1=O` [5-ethyl-5-phenylbarbituric acid], the “log P0 (intrinsic permeability, PAMPA-Certramide)” value falls from -4.63 to -6.05.

Going from `COC(=O)Cc1ccc(O)cc1` [4-hydroxymethyl phenylacetate] to `COc1ccccc1` [methyl phenyl ether], the “log P0 (intrinsic permeability, PAMPA-Certramide)” value rises from -5.07 to -4.34.

Going from `CCNc1nc(Cl)nc(NC(C)C)n1` [atrazine] to `CCC1(CC)C(=O)NC(=O)NC1=O` [5,5-diethylbarbituric acid (barbital), 5,5-diethylbarbituric acid], the “log P0 (intrinsic permeability, PAMPA-Certramide)” value falls from -4.67 to -5.75.

`Nc1ccccc1` [aniline] and `CC(=O)[C@@]1(O)CC[C@H]2[C@@H]3CCC4=CC(=O)CC[C@]4(C)[C@H]3CC[C@@]21C` [hydroxiprogesterone] are within 0.2 log units of each other in “log P0 (intrinsic permeability, PAMPA-Certramide)” value: -4.55 for the first, -4.70 for the second.

In the case of `C[C@]12CCC(=O)C=C1CC[C@@H]1[C@@H]2CC[C@@]2(C)[C@H]1CC[C@]2(O)C(=O)CO` [corteloxone], the “log P0 (intrinsic permeability, PAMPA-Certramide)” value is reported as -5.45.
